Measurements as given in patent US20090170898A1, “Sulphonamide Derivatives as Modulators of the Glucocorticoid Receptor” (priority 2006, published 2009).

Molecular target: T1, recombinant human GR (Homo sapiens, UniProt P04150)
T1 construct: purchased Panvera/Invitrogen P2812 (kit P2893)
T1 sequence (P04150 1-777): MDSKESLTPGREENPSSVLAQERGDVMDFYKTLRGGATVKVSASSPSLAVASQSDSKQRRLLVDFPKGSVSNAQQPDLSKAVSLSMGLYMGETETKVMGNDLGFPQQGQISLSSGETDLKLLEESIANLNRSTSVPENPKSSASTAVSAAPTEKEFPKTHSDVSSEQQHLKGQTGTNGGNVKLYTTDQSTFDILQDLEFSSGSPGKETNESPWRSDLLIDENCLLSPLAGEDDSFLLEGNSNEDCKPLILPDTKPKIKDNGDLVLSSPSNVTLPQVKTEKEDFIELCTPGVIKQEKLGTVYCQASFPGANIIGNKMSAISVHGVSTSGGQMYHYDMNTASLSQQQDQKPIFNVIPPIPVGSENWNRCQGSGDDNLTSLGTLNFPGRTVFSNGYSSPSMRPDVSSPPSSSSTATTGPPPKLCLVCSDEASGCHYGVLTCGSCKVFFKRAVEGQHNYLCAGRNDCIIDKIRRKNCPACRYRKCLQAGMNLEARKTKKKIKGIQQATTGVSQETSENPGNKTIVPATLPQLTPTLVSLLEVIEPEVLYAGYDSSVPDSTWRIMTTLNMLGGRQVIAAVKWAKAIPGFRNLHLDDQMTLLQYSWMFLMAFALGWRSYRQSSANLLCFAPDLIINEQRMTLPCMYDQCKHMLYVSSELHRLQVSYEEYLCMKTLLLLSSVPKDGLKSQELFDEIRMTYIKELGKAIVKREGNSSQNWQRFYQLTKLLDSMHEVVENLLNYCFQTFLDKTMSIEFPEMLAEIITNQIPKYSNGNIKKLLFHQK
Test: Human Glucocorticoid Receptor (GR) fluorescence polarization binding assay (GRhuFL_FP_v2)
Details: GS Red tracer, 2 hours at room temperature, 100% control 10 μM Dexamethasone, read-out: GRhuFL_FP_v2 (GR-binders) IC50
Experimental: Human Glucocorticoid Receptor (GR) Assay
The assay is based on a commercial kit from Panvera/Invitrogen (Part number P2893). The assay technology is fluorescence polarization. […] The GR and Stabilizing Peptide reagents are stored at −70° C. while the GS Red is stored at −20° C. Also included in the kit are 1M DTT (Panvera, Part number P2325, stored at −20° C.) and GR Screening buffer 10× (Panvera, Part number P2814, stored at −70° C. initially but once thawed stored at room temperature). Avoid repeated freeze/thaws for all reagents. The GR Screening buffer 10× comprises 100 mM potassium phosphate, 200 mM sodium molybdate, 1 mM EDTA and 20% DMSO.
0% control was 100% DMSO and 100% control was 10 μM Dexamethasone. Background solution (8 μL; assay buffer 10×, Stabilizing Peptide, DTT and ice cold MQ water) was added to the background wells. GS Red solution (7 μL; assay buffer 10×, Stabilizing Peptide, DTT, GS Red and ice cold water) was added to all wells except background wells. GR solution (7 μL; assay buffer 10×, Stabilizing Peptide, DTT, GR and ice cold water) was added to all wells. The plate was sealed and incubated in a dark at room temperature for 2 hours.

Which IC50 does the source give for `Cc1cc(C)c(S(=O)(=O)N[C@H]2CCN(c3cccc4ncccc34)C2)c(C)c1` [Example 1, 2,4,6-Trimethyl-N-[(3S)-1-quinolin-5-ylpyrrolidin-3-yl]benzenesulfonamide] here?
The IC50 was 48 nM.

For `O=S(=O)(N[C@H]1CCN(c2cccc3ncccc23)C1)c1c(Cl)cc(Cl)cc1Cl` [Example 2, 2,4,6-Trichloro-N-[(3S)-1-quinolin-5-ylpyrrolidin-3-yl]benzenesulfonamide], which IC50 is on record?
Its IC50 is 17 nM.

With `O=S(=O)(N[C@H]1CCN(c2cccc3c2cnn3-c2ccc(F)nc2)C1)c1c(Cl)cc(Cl)cc1Cl` [Example 3, 2,4,6-Trichloro-N-[(3S)-1-[1-(6-fluoropyridin-3-yl)-1H-indazol-4-yl]pyrrolidin-3-yl]benzenesulfonamide] as the compound, how does the IC50 read?
The IC50 was 19 nM.

With `O=S(=O)(N[C@H]1CCN(c2cccc3c2cnn3-c2ccc(F)cc2)C1)c1c(Cl)cc(Cl)cc1Cl` [Example 4, 2,4,6-Trichloro-N-{(3S)-1-[1-(4-fluorophenyl)-1H-indazol-4-yl]pyrrolidin-3-yl}benzenesulfonamide] as the compound, how does the IC50 read?
The IC50 was 25 nM.

With `Cc1cc(Cl)cc(Cl)c1S(=O)(=O)N[C@H]1CCN(c2cccc3c2cnn3-c2ccc(F)nc2)C1` [Example 5, 2,4-Dichloro-N-{(3S)-1-[1-(6-fluoropyridin-3-yl)-1H-indazol-4-yl]pyrrolidin-3-yl}-6-methylbenzenesulfonamide] as the compound, how does the IC50 read?
The IC50 was 25 nM.

For `Cc1cc(Cl)cc(Cl)c1S(=O)(=O)N[C@H]1CCN(c2cccc3ncccc23)C1` [Example 6, 2,4-Dichloro-6-methyl-N-[(3S)-1-quinolin-5-ylpyrrolidin-3-yl]benzenesulfonamide], which IC50 is on record?
Its IC50 is 26 nM.

With `Cc1cc(C)c(S(=O)(=O)N[C@H]2CCN(c3cccc4c3cnn4-c3ccc(F)nc3)C2)c(C)c1` [Example 7, N-{(3S)-1-[1-(6-Fluoropyridin-3-yl)-1H-indazol-4-yl]pyrrolidin-3-yl}-2,4,6-trimethylbenzenesulfonamide] as the compound, how does the IC50 read?
The IC50 was 38 nM.

Which IC50 does the source give for `Cc1nn(C2CCCC2)c(C)c1S(=O)(=O)N[C@H]1CCN(c2cccc3c2cnn3-c2ccc(F)cc2)C1` [Example 9, 1-Cyclopentyl-N-{(3S)-1-[1-(4-fluorophenyl)-1H-indazol-4-yl]pyrrolidin-3-Yl}-3,5-dimethyl-1H-pyrazole-4-sulfonamide] here?
The IC50 was 120 nM.
